Measurements published in patent publication US6399370B1, “Compositions and methods for use of defensin” (priority 1996, dated 2002).
Bridge positions count the residues as written; N and C are the ends. Ends that are not written are not given here.

B1: mBD-1: murine β defensin, tested as lysates of SW 13 cells transfected with full length mBD-1 cDNA (protein)
chain: MKTHYFLLVMICFLFSQMEPGVGILTSLGRRTDQYKCLQHGGFCLRSSCPSNTKLQGTCKPDKPNCCKS

Tests used:
[1] = system: Pseudomonas aeruginosa; experiment: Antibiotic activity of extracts of 293 cells transfected with hBD-1 cDNA; assay type: cell-based; conditions: extracts of kidney cells transfected with full length hBD-1 cDNA; mock transfected did not
Description: (§1) Human embryonal kidney cells (293) (ATCC CRL 1573) grown in the absence of antibiotics were transfected with the pCMV mammalian reporter vector (Clontech) containing the full length hBD-1 cDNA. Transfected and control mock transfected cells were harvested at 24 to 48 hours postransfection, pelleted by centrifugation, resuspended in 10 mM phosphate buffer (pH 7.4) and lysed by brief sonication. Cell debris was removed by centrifugation and the resulting supernatant was tested for antibiotic activity. Approximately 10^3 or 10^4 bacteria were exposed to cell extracts for 2 hours in 10 mM phosphate buffer (pH 7.4) and cell viability was measured by plating several dilutions and counting colonies the following day.

[2] = system: Staphylococcus aureus; experiment: as above; assay type: cell-based; conditions: extracts of kidney cells transfected with full length hBD-1 cDNA; mock transfected did not
Description: as §1

[3] = system: Escherichia coli; experiment: as above; assay type: cell-based; conditions: extracts of kidney cells transfected with full length hBD-1 cDNA; mock transfected did not
Description: as §1

[4] = system: Pseudomonas aeruginosa; experiment: Colony count killing and salt dependence assay of synthetic hBD-1; assay type: cell-based
Description: FIG. 7 is a graph depicting salt sensitivity of hBD-1 antimicrobial activity against Pseudomonas aeruginosa. Synthetic hBD-1 was incubated with 5×10^4 colony forming units of P. aeruginosa in 100 μl of 10 mM phosphate buffer (pH 7.4) and the indicated concentrations of NaCl. Reactions were then incubated at 37° C. for 20 minutes. Serial dilutions were plated and colony counts were performed the following day.
(§2) Essentially, for assays involving Pseudomonas and Escherichia coli, approximately 5×10^4 bacterial cells were exposed to about 50 μg to 500 μg of synthetic hBD-1 in 10 mM phosphate buffer (pH 7.4) in a reaction volume of 100 μl. Samples were incubated at 37° C. for 20 minutes and were then diluted to 1 ml total volume with the corresponding test buffer. A volume of 100 μl of this solution and of two 10-fold serial dilutions thereof, were plated and incubated overnight at 37° C. to facilitate colony formation.
Salt dependence of antibiotic activity was measured essentially as described for α-defensins (Lehrer et al., 1983, supra; Selsted et al., 1984, supra). Briefly, approximately 5×10^4 bacterial cells were exposed to 50 μg of synthetic hBD-1 in 10 mM phosphate buffer (pH 7.4) containing varying concentrations of NaCl in a reaction volume of 100 μl. Reactions were incubated at 37° C. for 20 minutes and were then diluted to 1 ml total volume with the corresponding test buffer. […]

[5] = system: E. coli; experiment: Colony count killing assay of synthetic hBD-1; assay type: cell-based, Escherichia coli; conditions: synthetic hBD-1, low NaCl
Description: as §2

[6] = system: Escherichia coli; experiment: Broth culture assay of synthetic hBD-1 (optical density); assay type: cell-based; conditions: 500 μg synthetic hBD-1, 1×10^4 bacterial cells in 200 μl 0.25×LB, 7 hours, background subtracted; untreated 0.127
Description: A broth culture assay was also used to assess the antimicrobial activity of hBD-1 directed against Escherichia coli. In this instance, 1×10^4 bacterial cells in 200 μl of 0.25×LB broth were incubated at 37DC in the presence or absence of 500 μg of synthetic hBD-1. After 7 hours, the optical density at 630 nm of the cultures was recorded as a measure of bacterial growth. After subtraction of background due to growth medium, the average optical density of the untreated cultures was 0.127 whereas those containing hBD-1 was 0.004, indicating nearly complete suppression of bacterial growth.

[7] = system: Staphylococcus aureus (clinical isolate); experiment: Diffusion and liquid broth assays of lysates of mBD-1 transfected cells; assay type: cell-based; conditions: lysates of SW 13 cells transfected with mBD-1 cDNA
Description: (§3) FIG. 14 is a series of graphs depicting the results of antibacterial assays on mBD-1. In FIGS. 14A, 14B and 14C there is shown the results of antibacterial liquid broth coincubation assays. E. coli (FIG. 14A), S. aureus (FIG. 14B) and P. aertiginosa (FIG. 14C) were added at a concentration of 10^3 to 10^4 cfu to 50 μl of lysates obtained from cells transfected with vector containing full length mBD-1 cDNA (empty circles) or cells transfected with the vector alone (filled circles). Each circle shown represents the results of an individual transfection experiment. In FIG. 14D there is shown the salt sensitivity of the antimicrobial activity of mBD-1. Extracts of mBD-1 transfected cells were incubated with 5×10^4 colony-forming units of E. coli D31 in 100 mM phosphate buffer (pH 7.4) and the indicated concentrations of NaCl. After incubation at 37° C. for 1 hour, serial dilutions of bacteria were plated and colonies were counted the following day.
(§4) To test the antibacterial activity of mBD-1, lysates obtained from cells transfected with mBD-1 cDNA positioned in a transfection vector were analyzed. […]
(§5) Antibacterial liquid broth assays were performed as previously described for α-defensins (Steiner et al., 1981, Nature 292:246-248). […] Cell viability was measured by plating several dilutions and counting colonies the following day. […]

[8] = system: Pseudomonas aeruginosa (clinical isolate); experiment: as above; assay type: cell-based; conditions: lysates of SW 13 cells transfected with mBD-1 cDNA
Description: as §3, §4, §5

[9] = system: Escherichia coli D31; experiment: Diffusion and liquid broth assays of lysates of mBD-1 transfected cells, incl. salt and pH dependency; assay type: cell-based
Description: as §3
To test the antibacterial activity of mBD-1, lysates obtained from cells transfected with mBD-1 cDNA positioned in a transfection vector were analyzed. A clinical isolate of Staphylococcus aureus, Escherichia coli D31 (Steiner et al., 1981, Nature 292:246-248), and a clinical isolate of Pseudomonas aeruginosa were used as test organisms in both diffusion assays and liquid broth assays. […]
as §5
To analyze the salt dependency of the activity of mBD-1 against E. coli D31, NaCl was added to aliquots of the agarose solution to obtain final concentrations of NaCl of 50 mM, 100 mM, 200 mM and 500 mM. The exact concentration of NaCl in the solutions was measured using Na or Cl sensitive electrodes (Microelectrodes). […]

| Molecule | antibiotic activity of transfected cell extracts [1] | antibiotic activity of transfected cell extracts [2] | antibiotic activity of transfected cell extracts [3] | hBD-1 concentrations at which bacterial killing was observed ([4]; low NaCl, 10 mM phosphate buffer pH 7.4, 37° C., 20 minutes) [µg/mL] | bactericidal activity ([4]; synthetic hBD-1, low NaCl) | bactericidal activity [5] | average optical density at 630 nm of cultures (bacterial growth) [6] | antimicrobial activity of lysates [7] | antimicrobial activity of lysates [8] | antimicrobial activity of lysates ([9]; lysates of SW 13 cells transfected with mBD-1 cDNA, diffusion and liquid broth assays) | antimicrobial activity in acidic pH ([9]; lysates of mBD-1 transfected cells, acidic pH) | antimicrobial activity in high concentrations of NaCl ([9]; lysates of mBD-1 transfected cells, high NaCl) |
| --- | --- | --- | --- | --- | --- | --- | --- | --- | --- | --- | --- | --- |
| hBD-1: human β-defensin 1; synthetic mature peptide with disulfide bridges Cys5-Cys34, Cys12-Cys27, Cys17-Cys35; also tested as extracts of cDNA-transfected cells (DHYNCVSSGGQCLYSACPIFTKIQGTCYRGKAKCCK; disulfide 12-27, 17-35, 5-34; UniProt P60022 33-68, looked up) | exhibited antibiotic activity | exhibited antibiotic activity | exhibited antibiotic activity | 60 to 500 | potent bactericidal activity | potent bactericidal activity | 0.004 | – | – | – | – | – |
| B1 | – | – | – | – | – | – | – | active | active | active | substantially diminished and lost | substantially diminished and lost |
